Experimental data taken from patent US20260232767A1, “INTERLEUKIN-23 RECEPTOR ANTAGONIST PEPTIDES FOR USE IN THE TREATMENT OF PSORIASIS” (Janssen Pharmaceutica NV, priority 2023, published 2026).

Tested on: scalp psoriasis
Assay: Scalp Specific IGA (ss-IGA), Example 1
Format: in vivo, human
Conditions: Week 16
Method: The Scalp Specific Investigator Global Assessment (ss-IGA) instrument is used to evaluate the disease severity of scalp psoriasis. The lesions are assessed in terms of the clinical signs of redness, thickness, and scaliness which are scored as: absence of disease (0), very mild disease (1), mild disease (2), moderate disease (3), and severe disease (4).
Clinician-reported outcomes including Psoriasis Area and Severity Index (PASI), Body Surface Area (BSA), Investigator's Global Assessment (IGA), Nail Psoriasis Area and Severity Index (NAPSI), Fingernail Physician's Global Assessment (f-PGA), Static Physician's Global Assessment of Genitalia (s-PGA-G), Physician's Global Assessment of Hands and/or Feet (hf-PGA), and Scalp Specific Investigator Global Assessment (ss-IGA) were obtained at Week 0, 8, and 16. PASI and IGA were also obtained at Weeks 1, 2, 4, and 12, and at Week 20, four weeks after the administration of the tablets has stopped.
Proportion of Patients Achieving scalp-specific (ss)-IGA score 0/1 and ss-IGA score 0 and With at Least a 2-Grade Improvement from baseline at Week 16.

CC(=O)NCCCC[C@@H]1NC(=O)[C@H](Cc2c[nH]c3c(C)cccc23)NC(=O)[C@H]([C@@H](C)O)NC(=O)[C@H](CC(N)=O)NC(=O)[C@@H](NC(C)=O)C(C)(C)SSC(C)(C)[C@@H](C(=O)N[C@@H](Cc2ccc(OCCN)cc2)C(=O)N[C@@H](Cc2ccc3ccccc3c2)C(=O)NC2(C(=O)N[C@@H](CCC(=O)O)C(=O)N[C@@H](CC(N)=O)C(=O)N[C@@H](Cc3cccnc3)C(=O)N(C)CC(N)=O)CCOCC2)NC1=O [IL-23 receptor antagonist peptide, Ac-[Pen]*-N-T-[W(7-Me)]-[Lys(Ac)]-[Pen]*-Phe[4-(2-aminoethoxy)]-[2-Nal]-[THP]-E-N-[3-Pal]-Sarc-NH2 (*[Pen]-[Pen]* formdisulfidebond)]
ss-IGA score 0/1 and ≥2-grade improvement from baseline, % (25 mg BID, baseline ss-IGA score ≥2, n=32): (65.6) %
ss-IGA score 0/1 and ≥2-grade improvement from baseline, % (25 mg QD, baseline ss-IGA score ≥2, n=37): (32.4) %
ss-IGA score 0/1 and ≥2-grade improvement from baseline, % (50 mg QD, baseline ss-IGA score ≥2, n=40): 70.0%
ss-IGA score 0/1 and ≥2-grade improvement from baseline, % (100 mg BID, baseline ss-IGA score ≥2, n=36): 75.0%
ss-IGA score 0/1 and ≥2-grade improvement from baseline, % (100 mg QD, baseline ss-IGA score ≥2, n=40): 67.5%
Response rate ss-IGA score 0/1 with ≥2-grade improvement from baseline (all doses vs placebo): significantly higher than placebo
